Experiment: xn = mol fraction of the nth substance listed
Settings: 423.15 K, Gas; for viscosity: Oscillating disk viscometry; for mass density: Pycnometric method

CC(F)(F)Cl [1-chloro-1,1-difluoroethane] + FC(F)Cl
Settings | mass density [kg/m3] | viscosity [mPa·s]
102.1 kPa, x2 = 0.2615 | 2.829 | 0.01579
102.2 kPa, x2 = 0.5169 | 2.723 | 0.01631
346.2 kPa, x2 = 0.5169 | 9.354 | 0.01634
390.7 kPa, x2 = 0.7502 | 10.18 | 0.01687
394 kPa, x2 = 0.2615 | 11.13 | 0.01581
642 kPa, x2 = 0.5169 | 17.67 | 0.01639
685.5 kPa, x2 = 0.7502 | 18.14 | 0.01697
686.5 kPa, x2 = 0.2615 | 19.8 | 0.01588
935.8 kPa, x2 = 0.5169 | 26.24 | 0.01646
978.6 kPa, x2 = 0.2615 | 28.81 | 0.01594
1026 kPa, x2 = 0.7502 | 27.65 | 0.01702
1230 kPa, x2 = 0.5169 | 35.16 | 0.01657
1273 kPa, x2 = 0.2615 | 38.54 | 0.01604
1368 kPa, x2 = 0.7502 | 37.56 | 0.01711
1537 kPa, x2 = 0.5169 | 44.54 | 0.01663
1569 kPa, x2 = 0.2615 | 48.6 | 0.01618
1706 kPa, x2 = 0.7502 | 47.76 | 0.01724
1832 kPa, x2 = 0.5169 | 54.69 | 0.01677
1878 kPa, x2 = 0.2615 | 59.81 | 0.01632
2055 kPa, x2 = 0.7502 | 58.73 | 0.01731
2158 kPa, x2 = 0.2615 | 70.63 | 0.0165
2158 kPa, x2 = 0.5169 | 65.98 | 0.01694
2415 kPa, x2 = 0.7502 | 70.79 | 0.0175
2436 kPa, x2 = 0.2615 | 81.74 | 0.01671
2444 kPa, x2 = 0.5169 | 76.64 | 0.01711
2719 kPa, x2 = 0.7502 | 81.34 | 0.01769
2740 kPa, x2 = 0.5169 | 88.1 | 0.01736
2797 kPa, x2 = 0.2615 | 98.1 | 0.01703
3055 kPa, x2 = 0.5169 | 101.2 | 0.01765
3152 kPa, x2 = 0.2615 | 115.5 | 0.01743
3159 kPa, x2 = 0.7502 | 97.7 | 0.01797
3389 kPa, x2 = 0.5169 | 116.1 | 0.01791
3440 kPa, x2 = 0.2615 | 131.6 | 0.01785
3481 kPa, x2 = 0.7502 | 110.3 | 0.01829
3680 kPa, x2 = 0.2615 | 145.8 | 0.01822
3703 kPa, x2 = 0.5169 | 131.2 | 0.0183
3855 kPa, x2 = 0.7502 | 126.4 | 0.01863
3921 kPa, x2 = 0.2615 | 160.9 | 0.01868
3992 kPa, x2 = 0.5169 | 146.2 | 0.01874
4203 kPa, x2 = 0.7502 | 142 | 0.01894
4227 kPa, x2 = 0.2615 | 184.1 | 0.01939
4325 kPa, x2 = 0.5169 | 165.2 | 0.01926
4504 kPa, x2 = 0.2615 | 207.1 | 0.02023
4560 kPa, x2 = 0.7502 | 159.4 | 0.01947
4634 kPa, x2 = 0.5169 | 184.7 | 0.01988
4740 kPa, x2 = 0.2615 | 230.5 | 0.0212
4895 kPa, x2 = 0.5169 | 203.4 | 0.02048
4897 kPa, x2 = 0.7502 | 176.4 | 0.01997
4956 kPa, x2 = 0.2615 | 254.1 | 0.0222
5173 kPa, x2 = 0.5169 | 223.6 | 0.02124
5183 kPa, x2 = 0.2615 | 285.1 | 0.02361
5286 kPa, x2 = 0.2615 | 294.5 | 0.02439
5301 kPa, x2 = 0.7502 | 200.1 | 0.02057
5380 kPa, x2 = 0.5169 | 240.7 | 0.02187
5605 kPa, x2 = 0.7502 | 219.3 | 0.02121
5612 kPa, x2 = 0.5169 | 261.9 | 0.02295
5795 kPa, x2 = 0.5169 | 280.3 | 0.02357
5936 kPa, x2 = 0.7502 | 242.2 | 0.02202
6270 kPa, x2 = 0.7502 | 267.2 | 0.02299
